Assay results published in US20150272928A1, “INDOLE DERIVATIVES” (UNIVERSITY OF CENTRAL LANCASHIRE, priority 2012, published 2015).
“Also recorded” adds a separate entry of the source.

How the values were obtained:
1321N1 cells [1] = assay: MTS assay, 1321N1 glioma cell line; type: cell-based; conditions: 48 h; for activity against the 1321N1 cell line (in words): MTS assay
Experimental: (§1) 1321N1 cells were maintained in Dulbeccos's Modified Eagle's Medium (DMEM) supplemented with 10% (v/v) foetal bovine serum (FBS) and 2 mM L-glutamine, while the U87MG cell line was maintained in Essential Minimum Eagle Medium (EMEM) supplemented with 10% (v/v) FBS, 2 mM L-glutamine, 1 mM sodium pyruvate and 1% (v/v) non-essential amino acids (NEAA) (Lonza, UK) in a 37° C. humidified incubator supplied with 5% CO2. The 1321N1 and the U87MG cells were trypsinized and cultured overnight at a cell density of 3500 cells/200 μl and 4000 cells/200 μl respectively in 96-well microtitre plates (Sarstedt, UK). The following day when the cells looked 50-60% confluent, each concentration of the commercial drugs and novel compounds mentioned above were added in quadruplicates and left for incubation for 48 hours. After 48 hours, 20 μl of the pre-warmed MTS reagent (Promega, UK) was added to each of the wells and the 96-well plates were incubated at 37° C. humidified incubator supplied with 5% CO2 for 60 min. At the end of 60 min, the absorbance was recorded at 490 nm using a Tecan GENios Pro® microplate reader. The concentration of compound that inhibits 50% of cell growth (IC50) compared to untreated vehicle controls containing ≦0.5% absolute ethanol was calculated by nonlinear regression analysis. Absolute ethanol was used in the vehicle controls as indole 4 was dissolved in absolute ethanol.

U87MG cells [2] = assay: MTS assay, U87MG glioma cell line; type: cell-based
Experimental: as §1

1321N1 cells [3] = assay: Reactive oxygen species detection assay (carboxy-H2DCFDA, flow cytometry), 1321N1 cells; type: cell-based; conditions: for ROS induction / oxidative stress: shift of H2DCFDA fluorescence signal compared to control: 1321N1, 500 μM, 1 h, flow cytometry, positive control TBHP 100 μM
From the text: (§2) The inventors hypothesised that the active indoles were acting through a radical-based mechanism, which was most likely related to the generation of reactive oxygen species (ROS).^[6] As such, the inventors chose the Image-iT™ LIVE Green Reactive Oxygen Species Detection Kit from Invitrogen Ltd, UK, which is able to detect reactive oxygen species (ROS) in live cells, to assess selected indoles. Oxidatively stressed cells, when labeled with the carboxy-H2DCFDA dye provided, should generate fluorescence which is detectable using a confocal microscope and flow cytometry. Various assays were therefore performed in accordance with the following protocols.
(§3) 1321N1 cells were maintained in Dulbeccos's Modified Eagle's Medium (DMEM) supplemented with 10% (v/v) foetal bovine serum (FBS) and 2 mM L-glutamine, while the U87MG cell line was maintained in Essential Minimum Eagle Medium (EMEM) supplemented with 10% (v/v) FBS, 2 mM L-glutamine, 1 mM sodium pyruvate and 1% (v/v) non-essential amino acids (NEAA) (Lonza, UK) in a 37° C. humidified incubator supplied with 5% CO2. The 1321N1 and the U87MG cells were trypsinized and cultured overnight at a cell density of 10^4 cells/well/ml and were seeded in 6 well plates (BD Biosciences, UK) and were allowed to attach overnight. 2 ml of this cell suspension was added into each well resulting into a final concentration of 20,000 cells/well. On the day of experiment, cells were labelled with sufficient amount of 25 μM carboxy-H2DCFDA dye and were incubated for 30 min at 37° C., protected from light. Cells were then treated with 500 μM of indole 4 and positive control [tert-butyl hydroperoxide (TBHP)](100 μM) and negative control (indole 2) (500 μM) for 60 mins. Cells were gently washed with Hank[…]s balanced salt solution (HBSS) warm buffer three times and then trypsinized, centrifuged and resuspended in 300 μl PBS. Cells were filtered through cell strainer caps (35 μm mesh) to obtain a single cell suspension and analysed using a FACSAria flow cytometer (BD Biosciences). The untreated vehicle controls contained ≦0.5% absolute ethanol and DMSO as indole 4 was dissolved in absolute ethanol while TBHP and indole 2 were dissolved in DMSO.
(§4) In the event, to confirm and quantify the amount of fluorescence (due to ROS) produced, glioma cell lines 1321N1 and U87MG were seeded in separate 6 well plates and were left overnight to attach. On the day of the experiment the carboxy-H2DCFDA dye was added to the cells which were incubated for 30 min in the dark. Indoles 2, 3, 4 and 7 (500 μM) were then added, in separate experiments, and left for 1 h incubation. Cells were thoroughly washed at each step to prevent background staining and they were imaged immediately after incubation.

U87MG cells [4] = assay: Reactive oxygen species detection assay (carboxy-H2DCFDA, flow cytometry), U87MG cells; type: cell-based; conditions: 500 μM, 1 h, positive control TBHP 100 μM
From the text: as §2, §3, §4

[5] = Stability under acidic conditions; type: physicochemical
[6] = system: primary cell culture (IN859); assay: IC50 against primary cell culture IN859 from a glioblastoma multiforme patient biopsy; type: cell-based; conditions: cells from a biopsy from a glioblastoma multiforme patient
From the text: Based on these preliminary results the inventors were keen to discover if the effects would also be observed against a primary cell culture (IN859) from cells obtained from a biopsy from a glioblastoma multiforme patient.

1321N1 cells [7] = assay: Acridine orange assay of acidic vesicular organelle (AVO) formation, 1321N1 cells; type: cell-based; conditions: 1321N1, 500 μM, 1 h, flow cytometry
Experimental: (§5) 1321N1 cells were maintained in Dulbeccos's Modified Eagle's Medium (DMEM) supplemented with 10% (v/v) foetal bovine serum (FBS) and 2 mM L-glutamine, while the U87MG cell line was maintained in Essential Minimum Eagle Medium (EMEM) supplemented with 10% (v/v) FBS, 2 mM L-glutamine, 1 mM sodium pyruvate and 1% (v/v) non-essential amino acids (NEAA) (Lonza, UK) in a 37° C. humidified incubator supplied with 5% CO2. The 1321N1 and the U87MG cells were trypsinized and cultured overnight at a cell density of 10^4 cells/well/ml and were seeded in 6 well plates (BD Biosciences, UK) and were allowed to attach overnight. 2 ml of this cell suspension was added into each well resulting into a final concentration of 20,000 cells/well. After 24 h of incubation, cells were treated with 500 μM of indole 4 for 60 min. After 60 min incubation with the compound the cells were stained with 3 μM acridine orange and incubated for 15 min at 37° C., protected from light. […] Cells were filtered through cell strainer caps (35 μm mesh) to obtain a single cell suspension and analysed using a FACSAria flow cytometer (BD Biosciences). […]
(§6) The glioma cells were seeded in 6 well plates and were left overnight to attach. The cells were then treated with indole 4 for 1 h, stained with acridine orange for 15 min, and were analysed by flow cytometry.

U87MG cells [8] = assay: Acridine orange assay of acidic vesicular organelle (AVO) formation, U87MG cells; type: cell-based; conditions: 500 μM, 1 h, flow cytometry
Experimental: as §5, §6

1321N1 cells [9] = assay: MTS assay, 1321N1 glioma cell line; type: cell-based; conditions: 1321N1, co-treatment with ascorbic acid
[10] = Homo sapiens, 1321-N1, average and standard deviation of four repeats, dash = IC50 value not reached
[11] = Homo sapiens, U-87 MG, 48 h, average and standard deviation of four repeats, dash = IC50 value not reached
[12] = average and standard deviation of four repeats, dash = IC50 value not reached
[13] = 48 h, average and standard deviation of four repeats, dash = IC50 value not reached

| Structure (SMILES) | IC50 (1321N1 cells [1]; [10]) [µM] | IC50 (U87MG cells [2]; [11]) [µM] | activity against the 1321N1 cell line (in words) (1321N1 cells [1]) | ROS induction / oxidative stress: shift of H2DCFDA fluorescence signal compared to control (1321N1 cells [3]) | ROS induction / oxidative stress: shift of H2DCFDA fluorescence signal compared to control (U87MG cells [4]) | also measured |
| --- | --- | --- | --- | --- | --- | --- |
| OCc1c[nH]c2ccccc12 [Compound 1, (1H-indol-3-yl)methanol] | 374 ± 2 | 585 ± 2 | active | – | – | – |
| O=Cc1c(-c2ccccc2)[nH]c2ccccc12 [Compound 6, 2-phenyl-1H-indole-3-carbaldehyde] | – | – | inactive | – | – | activity against the U87MG cell line (in words) (U87MG cells [2]; MTS assay, 48 h): inactive |
| N.N.[Cl][Pt][Cl] [cisplatin] | – | – | active | – | – | IC50 (1321N1 cells [1]; [12]): 11 ± 2 µM; IC50 (U87MG cells [2]; [13]): 310 ± 4 µM |
| COc1ccccc1-c1cc2ccccc2[nH]1 [Compound 7, 2-(2-methoxyphenyl)-1H-indole, reference compound] | – | – | inactive | no shift was observed | no shift was observed | activity against the U87MG cell line (in words) (U87MG cells [2]; MTS assay, 48 h): inactive |
| c1ccc(-c2cc3ccccc3[nH]2)cc1 [Compound 2, 2-phenyl-1H-indole] | – | > 400 | not able to inhibit the growth | no shift was observed | no shift was observed | MTS assay IC50 values 1321N1 (1321N1 cells [1]; [12]): does not reach its IC50; MTS assay IC50 values U87MG (U87MG cells [2]; [13]): does not reach its IC50; inhibition at 400 µM (U87MG cells [2]; Homo sapiens, U-87 MG, U87MG, at 400 μM, 48 h, read-out: maximum growth inhibition): 7% |

Second part, led by results:

| IC50 (1321N1 cells [1]; [10]) [µM] | IC50 (U87MG cells [2]; [11]) [µM] | Structure (SMILES) | activity against the 1321N1 cell line (in words) (1321N1 cells [1]) | ROS induction / oxidative stress: shift of H2DCFDA fluorescence signal compared to control (1321N1 cells [3]) | ROS induction / oxidative stress: shift of H2DCFDA fluorescence signal compared to control (U87MG cells [4]) | also measured |
| --- | --- | --- | --- | --- | --- | --- |
| 111 ± 1 | 176 ± 1 | OCc1c(-c2ccccc2)[nH]c2ccccc12 [Compound 3, (2-phenyl-1H-indol-3-yl)methanol] | active | shift of the fluorescence signal; also recorded: to a greater level than the positive control | shift of the fluorescence signal; also recorded: to a greater level than the positive control | stability under acidic conditions [5]: slightly unstable |
| 445 ± 4 | 379 ± 4 | Oc1ccccc1-c1cc2ccccc2[nH]1 [Compound 4, 2-(1H-indol-2-yl)phenol] | active | shift of the fluorescence signal; also recorded: to a greater level than the positive control | shift of the fluorescence signal; also recorded: to a greater level than the positive control | cell viability in the presence of ascorbic acid (U87MG cells [2]; MTS assay, U87MG, co-treatment with ascorbic acid): cell viability was unaffected; IC50 [6]: 398 ± 3 µM; level of fluorescence (ROS) on co-treatment with ascorbic acid (1321N1 cells [3]; 1321N1, indole 4 500 μM plus ascorbic acid 100 μM, data not shown): less than the vehicle control cells alone; AVO formation (acridine orange red fluorescence) (1321N1 cells [7]): increased amount of red fluorescence; AVO formation (acridine orange red fluorescence) (U87MG cells [8]): increased amount of red fluorescence; cell viability in the presence of ascorbic acid (1321N1 cells [9]): cell viability was unaffected |
